Source: the NIST ThermoML archive (doi:10.1021/je500067f)

Details: 101.33 kPa, Liquid; for viscosity: Capillary tube (Ostwald / Ubbelohde) method; for mass density: Pycnometric method

C[S+](C)[O-] [dimethyl sulfoxide]
Details	mass density [kg/m3]	viscosity [mPa·s]
298.15 K	1095.2	2
303.15 K	1090.6	1.8
308.15 K	1085.9	1.61
313.15 K	1081.3	1.44
318.15 K	1075.3	1.33
